Each block holds one molecule with its values, some of them ahead of it.
What was measured:
[1] = Oral supplementation of healthy volunteers, levels in whole blood by UPLC-MSMS; format: in vivo, human
Procedure: β-Aspartyl-arginine was administered orally either alone or in combination with arginine, and in varying doses. Levels of dipeptide in blood are then monitored over time. The substance used for the experiments is a white powder of β-aspartyl-arginine. The purity is >99% and was determined by HPLC-analysis.
Experimental procedure: The volunteers were three healthy males (age 41 to 51 years, 173-187 cm height, 80-85 kg weight, BMI around 25 kg/m^2). […] The volunteers fasted throughout the experiment. Blood was collected from the fingertip using a lancet device and blotted onto sample cards and levels of dipeptide and amino acids were determined by UPLC-MSMS by an external service provider (Labor Blessing, Singen Germany).

[2] = oral consumption, human use data; cited from earlier work
rat liver extract = details: β-aspartyl-glycine as a substrate, Dorer et al.; cited from earlier work
[3] = system: Proteinase N (Bacillus subtilis); test: Hydrolase susceptibility: proteinase N, HPLC; format: in vitro ADME; details: 500 μg dipeptide per ml, 28.4 U, 37° C., pH 1-3, 24 h, FIG. 7
Procedure: (§1) Arginase catalyzes the final step of the urea cycle and converts L-arginine into L-ornithine und urea. The other tested enzymes (proteases) are able to cleave α-peptide bonds involving aspartate and/or arginine. The release of free amino acids or modified dipeptide after treatment with these enzymes is monitored by HPLC. The substance used for the experiments is a white powder of β-L-aspartyl-L-arginine. The purity is >99% and was determined by HPLC-analysis.

[4] = molecular target: T1, Trypsin (Bovine pancreas) (Bos taurus, UniProt P00760); test: Hydrolase susceptibility: trypsin, HPLC; format: in vitro ADME; details: 500 μg dipeptide per ml, 187.5 U, 25° C., pH 7.6, 24 h, FIG. 7
T1 construct: purchased Sigma T1426-50MG; host or cells: bovine pancreas
T1 sequence (P00760 24-246): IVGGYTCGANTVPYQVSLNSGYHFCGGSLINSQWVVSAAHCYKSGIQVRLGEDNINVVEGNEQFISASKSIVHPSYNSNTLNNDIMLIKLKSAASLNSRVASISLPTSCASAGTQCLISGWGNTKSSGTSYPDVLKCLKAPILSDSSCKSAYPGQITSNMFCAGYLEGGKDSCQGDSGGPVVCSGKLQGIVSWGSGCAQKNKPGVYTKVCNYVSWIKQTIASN
Procedure: as §1

[5] = molecular target: T2, Chymotrypsin (Bovine pancreas) (Bos taurus, UniProt P00766); test: Hydrolase susceptibility: chymotrypsin, HPLC; format: in vitro ADME; details: 500 μg dipeptide per ml, 150 U, 30° C., pH 7.8, 24 h, FIG. 7
T2 construct: purchased Applichem A4531; host or cells: bovine pancreas
Procedure: as §1

[6] = system: bovine liver extract (β-aspartyl peptidases); test: Cleavage of β-aspartyl dipeptide by bovine liver extract, HPLC; format: in vitro ADME; details: 10 mM dipeptide, 37° C.
From the text: β-aspartyl dipeptides contain an isoaspartyl peptide bond instead of the α bond common in proteins. It is therefore resistant to cleavage by most common proteases and peptidases. While this resistance is an advantage in the gut and in the bloodstream as it prevents cleavage before reaching the target tissue, it does raise the question as to how the dipeptide is introduced into the metabolism. Specific cytoplasmic isoaspartases (also known as β-aspartyl peptidases) have been found in mammalian tissues that are capable of cleaving a large variety of β-aspartyl dipeptides and related compounds. Specificity is towards the β-aspartyl moiety, with the identity of the moiety bound to this residue being of little importance. The overall reaction can be summarized as:
The substance used for the experiments is a white powder of β-L-aspartyl-L-arginine. The purity is >99% and was determined by HPLC-analysis.
Bovine liver purchased from a butcher was chosen as a model due to ready availability. Liver (50 g fresh weight) was homogenized using a Waring blender in four times its volume of ice-cold phosphate-buffered saline. Insoluble material was removed by centrifugation for 15 min at 9,000×g at 4° C. The supernatant (liver extract) was used immediately as a test solution.
Test setup: An aliquot of 900 μl of liver extract in a 1.5-ml polypropylene tube was placed into a heat block at 37° C. and allowed to heat up for 10 min. Then, a volume of 100 μl of a solution of 100 mM β-aspartyl-arginine phosphate-buffered saline was added to a give a final concentration of 10 mM. Samples of 100 μl were taken at 0, 1, 2, 3, and 4 h after addition of the dipeptide. Immediately after each sample was taken, it was added to a 1.5-ml screw-cap polypropylene tube containing 100 μl of 10% SDS in water and 700 μl of demineralized water. This tube was immediately heated to 100° C. for 10 min to stop any further enzyme activity. The tube was then cooled to room temperature and 100 μl of 10% KCl solution were added. […] The samples were then diluted appropriately with demineralized water and analyzed by HPLC.

Arginase (Bovine) = molecular target: T3, Arginase (Bovine) (Bos taurus, UniProt Q2KJ64); test: Hydrolase susceptibility: arginase reaction, HPLC; format: in vitro ADME; details: 500 μg per ml, 100 U arginase, 37° C., pH 9.5, FIG. 5/6
T3 construct: purchased Alexis Bio/Sigma ALX-201-081-C020
T3 sequence (Q2KJ64 1-322): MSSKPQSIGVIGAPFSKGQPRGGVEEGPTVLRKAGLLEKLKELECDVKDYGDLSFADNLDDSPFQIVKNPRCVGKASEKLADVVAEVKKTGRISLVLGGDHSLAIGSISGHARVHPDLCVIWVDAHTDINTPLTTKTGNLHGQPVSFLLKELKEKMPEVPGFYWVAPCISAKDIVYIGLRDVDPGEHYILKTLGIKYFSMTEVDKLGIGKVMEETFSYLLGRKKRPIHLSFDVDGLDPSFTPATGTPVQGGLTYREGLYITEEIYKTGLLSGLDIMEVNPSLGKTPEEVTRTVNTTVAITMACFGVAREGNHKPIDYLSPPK
From the text: The release of free amino acids or modified dipeptide after treatment with these enzymes is monitored by HPLC.

[7] = system: Endoproteinase ArgC (mouse); test: Hydrolase susceptibility: endoproteinase Arg-C, HPLC; format: in vitro ADME; details: 500 μg dipeptide per ml, 37° C., pH 8.5, 24 h, FIG. 7
Procedure: as §1

[8] = molecular target: T4, Clostripain (Cl. histolyticum) (Hathewaya histolytica, UniProt P09870); test: Hydrolase susceptibility: clostripain, HPLC; format: in vitro ADME; details: 500 μg dipeptide per ml, 10 U, 25° C., pH 7.4, 24 h, FIG. 7
T4 construct: purchased Sigma C0888-250UN
Procedure: as §1

[9] = equimolar oral doses of free arginine (as arginine aspartate salt), FIG. 3

T4 sequence (P09870 191-526): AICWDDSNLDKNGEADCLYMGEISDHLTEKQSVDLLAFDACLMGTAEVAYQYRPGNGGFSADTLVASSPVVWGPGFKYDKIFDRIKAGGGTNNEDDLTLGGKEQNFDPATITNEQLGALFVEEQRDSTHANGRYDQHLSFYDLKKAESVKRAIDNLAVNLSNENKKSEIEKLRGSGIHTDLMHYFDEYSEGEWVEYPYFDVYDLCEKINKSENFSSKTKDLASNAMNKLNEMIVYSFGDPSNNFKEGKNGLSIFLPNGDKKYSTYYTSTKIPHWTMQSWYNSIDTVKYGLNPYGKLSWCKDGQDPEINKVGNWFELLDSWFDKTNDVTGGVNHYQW
T4 sequence (P09870 51-181): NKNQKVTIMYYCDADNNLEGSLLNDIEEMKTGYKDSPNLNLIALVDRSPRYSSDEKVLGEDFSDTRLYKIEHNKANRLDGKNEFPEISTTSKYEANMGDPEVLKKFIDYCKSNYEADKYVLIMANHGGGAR

time for blood concentrations to return to baseline [1, 9]: ≤ 4 h
time of fast increase in blood concentration [1, 9]: two
Structure (SMILES): N=C(N)NCCC[C@H](N)C(=O)O [arginine, reference compound]
effect of the 5-g dose on blood concentrations versus 2.5 g ([1]; oral free arginine (as arginine aspartate salt), FIG. 3): did not lead to substantially increased blood concentrations
oral amount beyond which arginine levels in blood do not increase [2]: 2.5 g

Structure (SMILES): N[C@@H](CC(=O)NCC(=O)O)C(=O)O [β-aspartyl-glycine]
hydrolysis activity of rat liver extract (rat liver extract): 0.028 U/mg

Structure (SMILES): N=C(N)NCCC[C@H](NC(=O)C[C@H](N)C(=O)O)C(=O)O [β-aspartyl-arginine, β-L-aspartyl-L-arginine]
change of dipeptide concentration after proteinase N treatment [3]: No significant difference
change of dipeptide concentration after trypsin treatment [4]: No significant difference
change of dipeptide concentration after chymotrypsin treatment [5]: No significant difference
form in which the orally administered substance is taken up into the bloodstream ([1]; oral): uncleaved dipeptide form
period over which the concentration of the dipeptide in whole blood increased ([1]; oral 2.5 g or 5 g dipeptide in 400 ml water, fasted, three volunteers, FIG. 1): about six
time for which the dipeptide was still detectable in whole blood ([1]; oral 2.5 g or 5 g dipeptide, FIG. 1): 12 h
free arginine in blood after administration of the dipeptide ([1]; oral dipeptide alone): only detected at baseline levels
effect of doubling the oral dose on maximum concentration in whole blood ([1]; oral dose from 2.5 g to 5 g): approximately doubled
cleavage by enzymes present in bovine liver ([6]; 0-4 h): is cleaved
hydrolysis activity of liver extract per protein ([6]; bovine liver extract): 0.065 U/mg protein
hydrolysis activity of liver extract ([6]; smaller timescale experiment, FIG. 8): 2.5 mg of dipeptide being hydrolyzed per gram of liver tissue per hour
hydrolysis by arginase (Arginase (Bovine)): no significant difference to the start concentration
change of dipeptide concentration after endoproteinase Arg-C treatment [7]: No significant difference
change of dipeptide concentration after clostripain treatment [8]: No significant difference

— patent US20210188905A1, “COMBINING BETA-DIPEPTIDES AND AMINO ACIDS FOR OPTIMAL NUTRITIONAL SUPPLEMENTATION” (Cysal GmbH, priority 2018, published 2021)
